The target of assay [1] is T1, Glucose-dependent insulinotropic receptor (Homo sapiens, UniProt Q8TDV5).
T1 sequence (Q8TDV5 whole entry): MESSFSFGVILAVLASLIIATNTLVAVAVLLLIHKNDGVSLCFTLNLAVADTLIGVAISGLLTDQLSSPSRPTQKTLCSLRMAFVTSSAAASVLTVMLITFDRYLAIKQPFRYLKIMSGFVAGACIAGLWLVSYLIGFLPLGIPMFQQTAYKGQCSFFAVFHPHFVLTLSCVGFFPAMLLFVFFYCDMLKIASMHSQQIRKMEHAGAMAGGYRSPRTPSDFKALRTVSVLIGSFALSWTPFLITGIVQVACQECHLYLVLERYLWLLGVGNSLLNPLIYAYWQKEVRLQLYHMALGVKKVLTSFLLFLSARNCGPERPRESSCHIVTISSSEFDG
The experiment in a line: Agonist activity at human GPR119 expressed in MIN6 cells assessed as intracellular cAMP level after 45 mins by ALPHAscreen cAMP assay. The format is functional, cell-based.

Assay [2] concerns the target T2, Glucose-dependent insulinotropic receptor (Homo sapiens) (UniProt Q8TDV5).
T2 sequence (whole entry): T1 sequence (Q8TDV5 whole entry)
The experiment in a line: Intrinsic activity at human GPR119 expressed in MIN6 cells assessed as intracellular cAMP level after 45 mins by ALPHAscreen cAMP assay relative to N-(4-methanesulfonylphenyl)-5-nitro-6-[4-(phenylsulfanyl)piperidin-1-yl]pyrimidin-4-amine. The format is functional, cell-based.

In the case of `CC(C)(C)OC(=O)N1CCC2(CC1)CC(C(=O)Nc1cc(F)c(C#N)cc1F)=NO2`, in assay [1], the EC50 was 93 nM. In assay [2], the Intrinsic activity is 170%.
Turning to `CC(C)(C)OC(=O)N1CCC2(CCN(C(=O)Nc3ccc(S(C)(=O)=O)cc3Br)CC2)CC1`, the EC50 in assay [1] was 800 nM. In assay [2], the Intrinsic activity is 165%.
On the same counts, the results for `N#Cc1cc(F)c(NC(=O)C2=NOC3(CCN(c4nc(-c5ccccc5)no4)CC3)C2)cc1F` are 30 nM and 173%.
On the same counts, the results for `C[S+]([O-])c1cc(F)c(NC(=O)C2=NOC3(CCN(c4nc(-c5ccccc5)no4)CC3)C2)cc1F` (stereo not drawn) are 21 nM and 160%.
